Reference: patent EP1094724B1, “USE OF A PHENOL OXIDISING ENZYME IN THE TREATMENT OF TOBACCO” (priority 1998, dated 2000)

System: Myceliopthora thermophila laccase (MtL)
Experiment: Laccase MtL treatment of tobacco extract, HPLC analysis of phenolic compounds (peak area)
Format: biochemical
Conditions: for Remaining content (% remaining) (peak area relative to the content in the extract): before drying
Description: The content of phenolic compounds is analysed by HPLC according to the procedure described below: • Liquid chromatographic system: E.g. Shimadzu SCL-6B System Controller, and two LC-6A Liquid Chromatograph (pumps) or Waters model 600 E • Injector: Shimadzu SIL 6B Autoinjector or Waters 715 Ultra Wisp. UV detector: Shimadzu SPD-6A Photodiode Array UV-VIS detector or Waters Model 481 • Software: CLASS LC10 / CLASS-MXA or Maxima 820 • Column: Supelcosil™ LC-18 25 cm x 4.6 mm (Supelco, #5-8298) or µ Bondapack C198 stainless steel column, 30 cm x 4 mm i.d., 10 µm particle size. • Guard column: none or Guard-Pak from Waters packed with the same material. • Temperature: Ambient • Mobile phase flow: 1.3 ml/min • Injection volume: 20µl • Wavelength: 350 nm • Eluent: Binary gradient (linear) mixture of A: KH2PO4 (28.4 g in 2000 ml de-mineralised water) and B: methanol (please see table 1 and figure 1). The eluent is filtered through a 0.45 µm filter and degassed before use.
Prior to HPLC analysis, the samples were filtered through a 0.45 µm filter or smaller, e.g. a sterile Sartorius Minisart 0.45 µm filter (#16555) or a Millipore Millex-GS 0.22 µm (#SBGS 0 25 SB) to remove the haze/precipitate normally formed during enzyme treatment. Normally, no dilution of the extract/sample was made before HPLC analysis.
For qualitative and semi-quantitative measurements, each of the standards was dissolved in 96% ethanol, and then mixed in a ratio and at a concentration which was within the range in the tobacco extract. For semi-quantification of the phenolic compounds in the tobacco extract, and as a measure of development in concentration of the various compounds contained in the extract, decrease in peak area relative to the peak area before addition of enzyme was used. As a measure of overall efficiency of the process, degree of reduction in total peak area of all peaks (not only the major ones) in the HPLC chromatogram with retention time Rt>3 min was used (named: "All peaks").
Unless otherwise indicated, the tobacco was extracted at a laboratory scale with water according to the following procedure: 1000 ml demineralised water is heated to 45°C. 30 g tobacco (approx. 25 g d.m.) is added and the mixture stirred by a magnetic bar and occasionally with a stick. After 15 minutes the tobacco residue is separated from the tobacco extract by vacuum filtration (Whatman glass micro fibre GF/F 11 cm). The filtered extract is then vacuum filtered at least once more or until it is completely clear. Yield was around 900 ml tobacco extract. […] No buffer was thus included in any of the trials. D.m. content of the extract was approximately 2.1%.
Tobacco extract (typically 50-100 ml) was poured into a glass beaker and a magnetic bar was added. No pH adjustments were made, and no buffer was added. The tobacco extract was heated to and controlled at 55°C during the entire enzyme treatment by means of a heating plate and a thermostat. Intensive submerse aeration was applied by blowing atmospheric air into the extract by means of a metal sinter (metal suction filter normally used for HPLC). The enzyme in question (TvL or PpL) was added to the desired concentration. Shortly after addition of laccase, the colour of the tobacco extract turned dark brown to black, and with time the liquor became turbid and a precipitate formed. The liquor was sampled with intervals for HPLC analysis.
It is obvious, that MtL can also be used to remove the phenolic compounds. It is evident, that using a dosage of MtL of approximately 0.63 µg/ml, longer processing time is needed compared to using a dosage of 6.3 µg/ml to obtain the same degree of reduction of the phenolic compounds, and that almost complete removal can be obtained with a dosage of approximately 0.63 µg/ml.
Enzyme treatment: MtL enzyme was added at various concentrations in the range 2.5 µg/ml - 6.3 µg/ml. A fixed processing time of 20 minutes was used. […]

COc1cc2ccc(=O)oc2cc1O [S, 7-Hydroxy-6-methoxy-2H-1-benzopyran-2-one]
Residual amount (% remaining) (peak area) (0 % pO2, 3.8 µg/ml MtL for 20 minutes at pH 5.4 and 55°C): 100% | Residual amount (% remaining) (peak area) (2.5 µg MtL /ml, 20 minutes at pH 5.4 and 55°C, intensive submerse aeration): 97% | Residual amount (% remaining) (peak area) (3.8 µg MtL /ml, 20 minutes at pH 5.4 and 55°C, intensive submerse aeration): 69% | Residual amount (% remaining) (peak area) (6.3 µg MtL /ml, 20 minutes at pH 5.4 and 55°C, intensive submerse aeration): 52% | Residual amount (% remaining) (peak area) (30 % pO2, 3.8 µg/ml MtL for 20 minutes at pH 5.4 and 55°C): 75% | Residual amount (% remaining) (peak area) (50 % pO2, 3.8 µg/ml MtL for 20 minutes at pH 5.4 and 55°C): 59% | Residual amount (% remaining) (peak area) (90 % pO2, 3.8 µg/ml MtL for 20 minutes at pH 5.4 and 55°C): 45% | % Remaining (peak area) after various treatment times (10 min, approx. 6.3 µg/ml MtL at pH 5.4 and 55°C, intensive submerse aeration): 78% | % Remaining (peak area) after various treatment times (20 min, approx. 6.3 µg/ml MtL at pH 5.4 and 55°C, intensive submerse aeration): 52% | % Remaining (peak area) after various treatment times (67 min, approx. 0.63 µg/ml MtL at pH 5.4 and 55°C, intensive submerse aeration): 90% | % Remaining (peak area) after various treatment times (150 min, approx. 0.63 µg/ml MtL at pH 5.4 and 55°C, intensive submerse aeration): 76% | Remaining content (% remaining) (peak area relative to the content in the extract) (Sample 4 enzyme treated extract after separation from precipitate, approximately 7.5 µg/ml MtL, 30 minutes, 53-56°C, pH 5.5): 47% | Remaining content (% remaining) (peak area relative to the content in the extract) (Sample 6 enzyme and bentonite treated extract separated from precipitate and bentonite, approximately 7.5 µg/ml MtL 30 minutes, then bentonite 15 minutes at 50-55°C): 44%
